Measured values reported in the NIST ThermoML archive (doi:10.1021/je049626l).
“And” between values parts separate entries of the source, which are not always exact repeats. Equal entries are not always repeated.

Key:
[1] = molar enthalpy of vaporization or sublimation; details: Liquid, DSC
[2] = Crystal; for Normal melting temperature: DTA

O=C(O)COc1ccc(Cl)cc1Cl [2,4-dichlorophenoxyethanoic acid]
Details | molar enthalpy [kcal/mol] | vapor or sublimation pressure
[1], 479.1 K | 18.2 | –
[1], 489.5 K | 18.2 | –
[1], 503.3 K | 18.4 | –
[2], 346 K | – | 8.48e-05 kPa
[2], 348 K | – | 0.000157 kPa
[2], 348.5 K | – | 0.000127 kPa
[2], 351 K | – | 0.00017 kPa
[2], 351.5 K | – | 0.000127 kPa
[2], 352 K | – | 0.000212 kPa
[2], 353 K | – | 0.000255 kPa and 0.000314 kPa
[2], 354.5 K | – | 0.000276 kPa and 0.000212 kPa
[2], 357 K | – | 0.000472 kPa
[2], 357.5 K | – | 0.000382 kPa
[2], 358 K | – | 0.000318 kPa
[2], 358.5 K | – | 0.000382 kPa
[2], 360 K | – | 0.000445 kPa and 0.000629 kPa
[2], 360.5 K | – | 0.000488 kPa
[2], 361 K | – | 0.000551 kPa
[2], 361.5 K | – | 0.000573 kPa
[2], 362.5 K | – | 0.000573 kPa
[2], 363 K | – | 0.000721 kPa and 0.000679 kPa
[2], 364.5 K | – | 0.000806 kPa
[2], 365.5 K | – | 0.000933 kPa and 0.00126 kPa
[2], 366 K | – | 0.000976 kPa and 0.000848 kPa
[2], 369 K | – | 0.00132 kPa and 0.0014 kPa and 0.0011 kPa
[2], 370 K | – | 0.00136 kPa and 0.00204 kPa
[2], 370.5 K | – | 0.00153 kPa
[2], 371 K | – | 0.0017 kPa
[2], 373 K | – | 0.00174 kPa
[2], 374 K | – | 0.00255 kPa
[2], 375 K | – | 0.00255 kPa and 0.00212 kPa
[2], 375.5 K | – | 0.00229 kPa
[2], 377 K | – | 0.00297 kPa
[2], 378 K | – | 0.00293 kPa and 0.00481 kPa
[2], 379 K | – | 0.00361 kPa
[2], 379.5 K | – | 0.00344 kPa
[2], 380.5 K | – | 0.00386 kPa
[2], 383.5 K | – | 0.00509 kPa
[2], 385 K | – | 0.00594 kPa
[2], 386 K | – | 0.00628 kPa
[2], 387 K | – | 0.0067 kPa

Details | Normal melting temperature [°C]
[2] | 141.4

O=C(O)CCCOc1ccc(Cl)cc1Cl [4-(2,4-dichlorophenoxy)butanoic acid]
Details | molar enthalpy [kcal/mol] | vapor or sublimation pressure
[1], 485.7 K | 19.4 | –
[1], 495 K | 19.4 | –
[1], 501.1 K | 19.4 | –
[2], 356.5 K | – | 8.48e-05 kPa
[2], 358 K | – | 0.000106 kPa
[2], 359.5 K | – | 0.000127 kPa
[2], 360 K | – | 0.000148 kPa and 0.000157 kPa
[2], 361 K | – | 0.000148 kPa
[2], 361.5 K | – | 0.00017 kPa
[2], 362.5 K | – | 0.000191 kPa
[2], 363 K | – | 0.000212 kPa and 0.000252 kPa
[2], 363.5 K | – | 0.000212 kPa and 0.000233 kPa
[2], 365.5 K | – | 0.000255 kPa
[2], 366.5 K | – | 0.000297 kPa
[2], 367 K | – | 0.000339 kPa
[2], 367.5 K | – | 0.000377 kPa
[2], 368 K | – | 0.000382 kPa
[2], 369 K | – | 0.000467 kPa
[2], 369.5 K | – | 0.000445 kPa
[2], 370 K | – | 0.000488 kPa and 0.000467 kPa
[2], 372 K | – | 0.000721 kPa
[2], 372.5 K | – | 0.000679 kPa and 0.000636 kPa
[2], 373 K | – | 0.000764 kPa and 0.000786 kPa
[2], 374 K | – | 0.000806 kPa
[2], 375 K | – | 0.000933 kPa and 0.00106 kPa
[2], 377 K | – | 0.00106 kPa and 0.00123 kPa
[2], 377.5 K | – | 0.00123 kPa
[2], 378 K | – | 0.00138 kPa and 0.0017 kPa
[2], 380 K | – | 0.00161 kPa
[2], 381 K | – | 0.00229 kPa
[2], 382 K | – | 0.00221 kPa
[2], 383 K | – | 0.00297 kPa and 0.00283 kPa
[2], 384 K | – | 0.00297 kPa
[2], 386 K | – | 0.00369 kPa and 0.0044 kPa
[2], 386.5 K | – | 0.00365 kPa
[2], 387 K | – | 0.00458 kPa
[2], 389 K | – | 0.00539 kPa
[2], 389.5 K | – | 0.00526 kPa
[2], 391 K | – | 0.0067 kPa and 0.00666 kPa

Details | Normal melting temperature [°C]
[2] | 120.1

COC(=O)COc1ccc(Cl)cc1Cl [methyl 2,4-dichlorophenoxyethanoate]
[1]
Details | molar enthalpy [kcal/mol]
415.2 K | 14.1
424.4 K | 14.3
430.4 K | 14.3

Details | Normal melting temperature [°C]
[2] | 37.6

COC(=O)CCCOc1ccc(Cl)cc1Cl [butanoic acid, 4-(2,4-dichlorophenoxy)-, methyl ester]
[1]
Details | molar enthalpy [kcal/mol]
456 K | 15.8
463.4 K | 16.3
469.8 K | 16.3

Details | Normal melting temperature [°C]
[2] | 35.0

CC(Oc1ccc(Cl)cc1Cl)C(=O)O (configuration not stated) [2-(2,4-dichlorophenoxy)propanoic acid]
Details | molar enthalpy [kcal/mol] | vapor or sublimation pressure
[1], 466.7 K | 18.2 | –
[1], 474 K | 18.2 | –
[1], 477.9 K | 18.2 | –
[2], 343 K | – | 0.000157 kPa
[2], 347 K | – | 0.000267 kPa and 0.000297 kPa
[2], 352 K | – | 0.000551 kPa
[2], 353 K | – | 0.000503 kPa
[2], 356 K | – | 0.000764 kPa and 0.000708 kPa
[2], 358 K | – | 0.000849 kPa
[2], 359 K | – | 0.000912 kPa
[2], 360 K | – | 0.00126 kPa
[2], 361 K | – | 0.00126 kPa and 0.00153 kPa
[2], 364 K | – | 0.00223 kPa
[2], 365 K | – | 0.00208 kPa
[2], 366 K | – | 0.00252 kPa and 0.00339 kPa
[2], 368 K | – | 0.00361 kPa
[2], 370 K | – | 0.00445 kPa
[2], 371 K | – | 0.00481 kPa
[2], 372 K | – | 0.00472 kPa
[2], 374 K | – | 0.00721 kPa
[2], 375 K | – | 0.00692 kPa

Details | Normal melting temperature [°C]
[2] | 116.6
